# Tests used:
# human PDE9A = human PDE9A (Homo sapiens (Human), UniProt O76083); conditions: concentrations of up to 100 micromolar (μM); cited from earlier work
# Murine PDE9A = Murine PDE9A (Mus musculus (Mouse), UniProt O70628); conditions: cited from earlier work
# PDE1C = PDE1C (Homo sapiens (Human), UniProt Q14123); experiment: PDE1C assay (SPA, analogue to the PDE9A2 assay); format: biochemical; conditions: ratio PDE1C IC50 / PDE9A2 IC50
# Description: The reaction can be stopped by applying the same inhibitor than the one that is outlined above (1-(2-Chlorophenyl)-6-[(2R)-3,3,3-trifluoro-2-methyl-propyl]-1,5-dihydro-4H-pyrazolo[3,4-d]pyrimidine-4-one).
# (§1) IC50 can be calculated with GraphPadPrism or other suited software setting the positive control as 100 and the negative control as 0. For calculation of IC50 dilutions of the test compounds (substrates) are to be selected and tested following the aforementioned protocol.
# human PDE9A2 = human PDE9A2 (Homo sapiens (Human), UniProt O76083); experiment: PDE9A2 enzymatic activity assay (scintillation proximity assay); format: biochemical
# Experimental: As enzyme source, lysate (PBS with 1% Triton X-100 supplemented with protease inhibitors, cell debris removed by centrifugation at 13.000 rpm for 30 min) of SF 9 cell expressing the human PDE9A2 was used. The total protein amount included in the assay varied upon infection and production efficacy of the SF9 cells and lay in the range of 0.1-100 ng.
# The assays were run in 384-well format. The test reagents as well as the enzyme and the substrate were diluted in assay buffer. The assay buffer contained 50 mM Tris, 8.3 mM MgCl2, 1.7 mM EGTA, 0.1% BSA, 0.05% Tween 20; the pH of assay buffer was adjusted to 7.5.
# The activity of the positive control (minus the negative control=background) is set to 100% and activity in the presence of test compound is expressed relative to these 100%.
# as §1
# Chain of human PDE9A (O76083 whole entry): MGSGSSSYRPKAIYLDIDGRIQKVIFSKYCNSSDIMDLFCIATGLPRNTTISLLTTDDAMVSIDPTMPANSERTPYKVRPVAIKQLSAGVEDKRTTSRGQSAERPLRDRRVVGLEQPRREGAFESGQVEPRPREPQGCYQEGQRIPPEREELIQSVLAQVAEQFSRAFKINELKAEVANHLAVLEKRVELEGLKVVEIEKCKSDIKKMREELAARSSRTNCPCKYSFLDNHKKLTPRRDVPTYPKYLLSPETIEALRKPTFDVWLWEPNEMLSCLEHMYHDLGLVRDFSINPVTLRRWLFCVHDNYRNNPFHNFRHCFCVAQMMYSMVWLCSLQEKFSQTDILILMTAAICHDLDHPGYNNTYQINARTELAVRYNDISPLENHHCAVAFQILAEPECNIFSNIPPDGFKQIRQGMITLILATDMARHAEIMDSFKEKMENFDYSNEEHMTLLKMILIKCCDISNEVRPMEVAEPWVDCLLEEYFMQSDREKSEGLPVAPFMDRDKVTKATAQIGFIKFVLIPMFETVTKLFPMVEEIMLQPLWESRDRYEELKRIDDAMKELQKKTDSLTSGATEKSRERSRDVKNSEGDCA
# Chain of human PDE9A2 (O76083 other isoform, or with tags, fused parts or gaps): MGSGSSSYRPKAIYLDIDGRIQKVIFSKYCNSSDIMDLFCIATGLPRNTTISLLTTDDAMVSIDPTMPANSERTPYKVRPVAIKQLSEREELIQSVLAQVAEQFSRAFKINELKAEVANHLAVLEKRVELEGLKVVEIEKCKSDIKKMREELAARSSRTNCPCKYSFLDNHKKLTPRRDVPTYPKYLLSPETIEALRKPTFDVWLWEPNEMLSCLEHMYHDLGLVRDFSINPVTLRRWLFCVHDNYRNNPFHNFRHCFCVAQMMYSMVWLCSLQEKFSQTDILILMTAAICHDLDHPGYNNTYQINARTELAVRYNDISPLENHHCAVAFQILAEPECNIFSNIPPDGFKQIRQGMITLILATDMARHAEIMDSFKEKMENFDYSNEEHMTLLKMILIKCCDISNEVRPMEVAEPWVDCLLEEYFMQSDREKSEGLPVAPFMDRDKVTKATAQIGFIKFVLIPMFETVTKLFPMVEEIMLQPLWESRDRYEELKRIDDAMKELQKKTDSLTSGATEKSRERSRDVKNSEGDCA
# Chain of Murine PDE9A (O70628 whole entry): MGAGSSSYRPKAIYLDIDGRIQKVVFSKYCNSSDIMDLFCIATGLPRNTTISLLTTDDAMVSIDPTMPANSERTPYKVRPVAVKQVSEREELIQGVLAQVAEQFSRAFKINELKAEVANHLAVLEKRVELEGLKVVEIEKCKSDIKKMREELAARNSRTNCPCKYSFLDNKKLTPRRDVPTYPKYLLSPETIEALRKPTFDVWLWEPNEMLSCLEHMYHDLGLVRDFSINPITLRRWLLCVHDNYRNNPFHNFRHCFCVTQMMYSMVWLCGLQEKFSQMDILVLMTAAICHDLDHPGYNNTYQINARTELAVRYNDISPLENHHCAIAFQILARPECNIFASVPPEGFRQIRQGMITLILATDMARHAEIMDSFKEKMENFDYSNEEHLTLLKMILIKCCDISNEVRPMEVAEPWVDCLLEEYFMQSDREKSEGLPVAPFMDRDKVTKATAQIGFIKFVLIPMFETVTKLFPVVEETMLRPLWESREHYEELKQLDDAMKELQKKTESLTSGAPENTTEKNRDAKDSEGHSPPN
SMILES,inhibition on the isolated enzyme (human PDE9A),also measured
CC(=O)Nc1ccc(-c2c[nH]c(=O)cn2)cc1 [SKF94120],no inhibition,
CC(C)Cn1c(=O)n(C)c(=O)c2[nH]cnc21 [IBMX],no inhibition,inhibition of murine PDE9A (Murine PDE9A; concentrations below 200 micromolar): not inhibited
CCCOc1ccccc1-c1nc2nn[nH]c2c(=O)[nH]1 [zaprinast],,IC50 (Murine PDE9A; murine PDE9A): 29 µM
OCCN(CCO)c1nc(N2CCCCC2)c2nc(N(CCO)CCO)nc(N3CCCCC3)c2n1 [dipyridamole],no inhibition,
CC(C)(C)c1cccc(-c2ccccc2Cc2nc3c(cnn3C3CCOCC3)c(=O)[nH]2)n1 [Example 259],,"S: selectivity values [= (IC50 for PDE1C inhibition)/(IC50 for PDE9A2 inhibition)] (PDE1C): 942; inhibition at 10 µM (human PDE9A2; PDE9A2, 10 microM test compound, read-out: I % (at 10 microM): inhibition at 10 micromolar concentration): 102%; IC50 (human PDE9A2; human PDE9A2, cGMP 20 nanomolar, read-out: IC50 values for PDE9A2 inhibition): 0.003 µM"
COc1ccc(C2CNC(=O)C2)cc1OC1CCCC1 (stereo not shown) [rolipram],no inhibition,
CCOC(=O)C1=C[C@]2(CC)CCCN3CCc4c(n1c1ccccc41)[C@@H]32 [vinpocetine],no inhibition,

# Source: patent US8623901B2, “Compounds for the treatment of CNS disorders” (Boehringer Ingelheim International GmbH, priority 2009, dated 2014)
